{"source": "paper PMC11435065", "about": "“Inhibition of P-Glycoprotein Asymmetrically Alters the In Vivo Exposure Profile of SGC003F: A Novel Guanylate Cyclase Stimulator” (Pharmaceuticals, 2024)", "key": {"[1]": {"experiment": "In vitro metabolic stability in rat liver microsomes", "format": "in vitro ADME", "settings": "1 µM, up to 60 min, NADPH or UDPGA", "protocol": "In vitro incubation dependent on NADPH: SGC003F was added into rat and human liver microsomes diluted in PBS (100 mM, pH 7.3). NADPH was introduced into the system. The NADPH had been pre-equilibrated under the same conditions for 5 min to initiate the enzymatic reaction. The incubation mixture was meticulously prepared to achieve the following final concentrations: 1 µM for SGC003F, 0.5 mg/mL for the liver microsomal protein, and 1 mM for NADPH.\nIn vitro incubation dependent on UDPGA: rat and human liver microsomes diluted in PBS (100 mM, pH 7.3) were mixed with alamethicin and then placed on ice for 15 min before the addition of the working solution of SGC003F. After preincubation in a water bath at 37 °C for 5 min, UDPGA, which had been preincubated for 5 min was added to initiate the reaction. The final concentrations in the incubation system were as follows: 1 μM for SGC003F, 0.5 mg/mL for liver microsomal protein concentration, 5 mM for UDPGA, and 25 μg/mL for alamethicin.\nPositive probe substrate assays were utilized to ensure normal activity of the incubation system. […] Finally, 60 μL supernatant was taken and diluted with 60 μL of 50% acetonitrile before being analyzed by LC-MS/MS."}, "[2]": {"experiment": "Urinary and fecal cumulative excretion of SGC003F in rats with or without tariquidar", "format": "in vivo", "settings": "rat, SGC003F p.o. 1 mg/kg; for dose excreted: male, SD, urine and faeces", "protocol": "In total, 18 male SD rats were randomly divided into three groups, with 6 rats in each group. Group I: SGC003F (p.o., 1 mg/kg) + blank vehicle (control group); Group Ⅱ: SGC003F (p.o., 1 mg/kg) + tariquidar (i.v., 7.5 mg/kg); Group III: SGC003F (p.o., 1 mg/kg) + tariquidar (p.o., 15 mg/kg). The rats were fasted for 12 h before oral administration. After administration, the rats were placed immediately in a metabolic cage and resumed feeding for 2 h. Urine and fecal samples were collected at 0–4, 4–8, 8–12, 12–24, 24–36, 36–48, 48–72, 72–96, and 96–120 h after administration. Fecal samples were homogenized with acetonitrile at a ratio of 1:4 (w/v) and stored at −40 °C for analysis."}, "[3]": {"settings": "single, within 120 h, parent drug"}, "[4]": {"settings": "tariquidar i.v. 7.5 mg/kg, 120 h"}, "[5]": {"settings": "tariquidar p.o. 15 mg/kg, 120 h"}, "[6]": {"settings": "with tariquidar i.v. 7.5 mg/kg, 120 h"}, "[7]": {"settings": "with tariquidar p.o. 15 mg/kg, 120 h"}}, "note": "“And” between values parts separate entries of the source, which are not always exact repeats. Equal entries are not always repeated. Where two headings read alike, the source gives them in different places."}
{"smiles": "COC(=O)Nc1c(N)nc(-c2nn(Cc3sccc3F)c3ncc(F)cc23)nc1N", "note": "[SGC003F]", "values": [{"measurement": "Metabolic stability (percentage of drug remaining over time)", "setting": "[1]", "value": "no significant metabolic elimination"}, {"measurement": "dose excreted", "setting": "[2]; oral, with tariquidar i.v. 7.5 mg/kg, 120 h, read-out: U + F (total urinary and fecal recovery)", "value": "37.9 ± 5.99", "unit": "%"}, {"measurement": "dose excreted", "setting": "[2]; oral, with tariquidar p.o. 15 mg/kg, 120 h, read-out: U + F (total urinary and fecal recovery)", "value": "36.7 ± 3.36", "unit": "%"}, {"measurement": "dose excreted", "setting": "[2]; po, 1 mg/kg, single, within 120 h, read-out: U + F (total urinary and fecal recovery of parent drug)", "value": "71.5 ± 15.1", "unit": "%"}, {"measurement": "Total cumulative urinary and fecal excretion relative to control group", "setting": "[2]; after co-administration of tariquidar", "value": 50, "unit": "%"}, {"measurement": "F (cumulative fecal excretion)", "setting": "[2]; [3]", "value": "59.5 ± 14.4", "unit": "%"}, {"measurement": "U (cumulative urinary excretion)", "setting": "[2]; [3]", "value": "11.9 ± 1.36", "unit": "%"}, {"measurement": "F (fecal), Ratio 1 (with Tar (i.v.)/single)", "setting": "[2]; [4]", "value": 0.32}, {"measurement": "U + F, Ratio 1 (with Tar (i.v.)/single)", "setting": "[2]; [4]", "value": 0.53}, {"measurement": "U, Ratio 1 (with Tar (i.v.)/single)", "setting": "[2]; [4]", "value": 1.56}, {"measurement": "F (fecal), Ratio 2 (with Tar (p.o.)/single)", "setting": "[2]; [5]", "value": 0.19}, {"measurement": "U + F, Ratio 2 (with Tar (p.o.)/single)", "setting": "[2]; [5]", "value": 0.51}, {"measurement": "U, Ratio 2 (with Tar (p.o.)/single)", "setting": "[2]; [5]", "value": 2.13}, {"measurement": "F (cumulative fecal excretion)", "setting": "[2]; [6]", "value": "19.3% and 19.3 ± 2.31 %"}, {"measurement": "U (cumulative urinary excretion)", "setting": "[2]; [6]", "value": "18.6% and 18.6 ± 4.37%"}, {"measurement": "F (cumulative fecal excretion)", "setting": "[2]; [7]", "value": "11.5% and 11.5 ± 2.61 %"}, {"measurement": "U (cumulative urinary excretion)", "setting": "[2]; [7]", "value": "25.3% and 25.3 ± 1.62%"}]}
